US10912712B2, “Treatment of bleeding by non-invasive stimulation” (The Feinstein Institutes for Medical Research, priority 2004, dated 2021)
“Also recorded” adds a separate entry of the source.

Experiments:
Male Balb/c Mice [1] = assay: Bleed time after tail amputation in mice, GTS-21 (Example 10); format: in vivo; conditions: GTS-21 4 mg/kg IP vs PBS, 1 hour before, anesthetized, 2 mm of tail amputated
Protocol: Male Balb/c mice (around 25 g) were injected (intraperitoneally (IP)) with cholinergic agonist GTS-21 (4 mg/kg in 125 µL PBS) or PBS (vehicle control, 125 µL). 1 hour later, mice were anesthetized with ketamine/xylazine (100 mg/kg/10 mg/kg, intraperitoneally).

Male Balb/c Mice [2] = assay: Effect of alpha-7 antagonist MLA given before nicotine on bleed time (Example 13); format: in vivo
Protocol: Male Balb/c mice (around 25 g) were divided into three groups: A, B and C. Groups A and C were injected with the alpha-7 antagonist methyllycaconitine, (MLA; 4 mg/kg, IP, in 200 µL PBS), group B was injected with PBS (vehicle control, 125 µ1). 15 minutes later, Group A was injected with PBS (vehicle control, 125 µl) and groups B and C were injected with nicotine (0.3 mg/kg in 125 µL PBS). 30 minutes later, mice were anesthetized (ketamine [100 mg/kg, IP] and xylazine [10 mg/kg, IP]). After immersing tails in 37° C. saline for 5 minutes to normalize vasodilatory state, 2 mm of tail was amputated with a scalpel, and returned to the saline bath (modified from Nagashima et al., Journal of Clinical Investigation (109) 101-110, (2002); Snyder et al., Nature Medicine (5), 64-70, (1999).
Once bleeding stopped, animals were euthanized by CO2 asphyxiation. Data were recorded in seconds, and are presented as mean+/− SE. Student's t-test was used for statistical analysis.

Q: Which total bleeding time (Male Balb/c Mice [1]) does the source give for `COc1ccc(/C=C2\CCCN=C2c2cccnc2)c(OC)c1` [GTS-21] here?
A: significantly reduced the bleed time; also recorded: decrease in bleed time

Q: `CCN1C[C@]2(COC(=O)c3ccccc3N3C(=O)C[C@H](C)C3=O)CC[C@H](OC)[C@@]34[C@@H]5C[C@H]6[C@H](OC)[C@@H]5[C@](O)(C[C@@H]6OC)[C@@](O)([C@@H](OC)[C@H]23)[C@@H]14` [MLA, methyllycaconitine] was tested. Which “effect on nicotine induced reduction of bleed time” value (Male Balb/c Mice [2]; MLA 4 mg/kg IP 15 minutes before nicotine 0.3 mg/kg) did it give?
A: inhibited nicotine induced reduction of bleed time

Q: How did the total bleeding time (Male Balb/c Mice [2]; nicotine 0.3 mg/kg after PBS pretreatment, 30 minutes later anesthetized, 2 mm of tail amputated) turn out when `CN1CCCC1c1cccnc1` (stereo not drawn) [nicotine] was run?
A: reduction in bleed time
